Assay results as given in patent publication US6743568B2, “Cyanine dyes” (Kabushiki Kaisha Hayashibara Seibutsu Kagaku Kenkyujo, priority 2000, dated 2004).
Like-named read-outs stand apart in the source and are kept apart here.

Key:
[1] = Solubility of cyanine dye in DAA at 20° C.; type: physicochemical; settings: in diacetone alcohol (DAA) at 20° C.
Procedure: For the cyanine dyes in Table 1, they were measured in a conventional manner for solubility in […] at 20° C. In parallel, conventional related compounds represented by Chemical Formulae 73 to 76 were also measured for solubility in DAA in a similar way.

[2] = Decomposition point of cyanine dye by DTA/TGA; type: physicochemical; settings: temperature at which specimen begins to lose weight on TGA; heating rate 10° C./min
Description: An adequate amount of any one of the cyanine dyes in Table 1 as a test specimen was placed in a vessel and subjected to conventional differential thermal analysis (hereinafter abbreviated as “DTA”) and thermogravimetric analysis (hereinafter abbreviated as “TGA”) using “MODEL TG/DTA 220”, a digital thermo analyzer commercialized by Seiko Instruments Inc., Tokyo, Japan, to determine their decomposition points, i.e., temperatures at which the cyanine dyes as test specimens begin to lose their weight on TGA. In parallel, conventional related compounds represented by Chemical Formulae 73 and 76 were analyzed similarly as above. […] In DTA and TGA, the environmental temperature was set to an increasing temperature mode at a rate of 10° C./min.

[3] = diacetone alcohol (DAA), 20 °C, organic solvent or mixture, read-out: Solubility

| Solubility [1] [mg/mL] | Decomposition point (° C.) [2] [°C] | Solubility [1, 3] [mg/mL] | SMILES |
| --- | --- | --- | --- |
| 23 | 281.6 |  | CCCCN1C(=CC=CC2=[N+](CC)c3ccc4ccccc4c3C2(C)C)C(C)(C)c2c1ccc1ccccc21 [Chemical Formula 19] |
| 140 | 281.8 |  | CCCCN1C(=CC=CC2=[N+](CC)c3ccc4ccccc4c3C2(C)C)C(C)(C)c2c1ccc1ccccc21 [Chemical Formula 20] |
|  | 301.9 | 2.8 | CCCN1C(=CC=CC2=[N+](CC)c3ccc4ccccc4c3C2(C)C)C(C)(C)c2c1ccc1ccccc21 [Chemical Formula 21] |
| 22 | 211.5 |  | CCCCN1C(=CC=CC2=[N+](CC)c3ccc4ccccc4c3C2(C)C)C(C)(C)c2c1ccc1ccccc21 [Chemical Formula 74, reference compound] |
|  | 269.0 | 19 | CCCCN1C(=CC=CC2=[N+](CCC)c3ccc4ccccc4c3C2(C)C)C(C)(C)c2c1ccc1ccccc21 [Chemical Formula 75, reference compound] |
| 17 | 266.1 |  | CCCCN1C(=CC=CC2=[N+](CCCC)c3ccc4ccccc4c3C2(C)C)C(C)(C)c2c1ccc1ccccc21 [Chemical Formula 76, reference compound] |

Continued, compound first:

| SMILES | Solubility [1] [mg/mL] | Decomposition point (° C.) [2] [°C] | Solubility [1, 3] [mg/mL] |
| --- | --- | --- | --- |
| CCCCN1C(=CC=CC2=[N+](C)c3ccc4ccccc4c3C2(C)C)C(C)(C)c2c1ccc1ccccc21 [Chemical Formula 13] | 143 | 264.7 |  |
| CCCCN1C(=CC=CC2=[N+](C)c3ccc4ccccc4c3C2(C)C)C(C)(C)c2c1ccc1ccccc21 [Chemical Formula 14] | 73 | 279.8 |  |
| CN1C(=CC=CC2=[N+](C)c3ccc4ccccc4c3C2(C)C)C(C)(C)c2c1ccc1ccccc21 [Chemical Formula 16] |  | 314.5 | 1.1 |
| CCCCN1C(=CC=CC2=[N+](CCCC)c3ccc4ccccc4c3C2(C)C)C(C)(C)c2c1ccc1ccccc21 [Chemical Formula 33] | 61 | 284.2 |  |
| CCCCN1/C(=C\C=C\C2=[N+](CCCC)c3ccc4ccccc4c3C2(C)C)C(C)(C)c2c1ccc1ccccc21 [Chemical Formula 35] | 6.4 | 280.1 |  |
| CN1C(=CC=CC2=[N+](C)c3ccc4ccccc4c3C2(C)C)C(C)(C)c2ccc3ccccc3c21 [Chemical Formula 43] |  | 304.7 | 2.7 |
| CCCC[N+]1=C(C=CC=C2N(C)c3c(ccc4ccccc34)C2(C)C)C(C)(C)c2c1ccc1ccccc21 [Chemical Formula 50] |  | 261.3 | 64 |
| CCCCN1C(=CC=CC2=[N+](C)c3ccc4ccccc4c3C2(C)C)C(C)(C)c2c1ccc1ccccc21 [Chemical Formula 73, reference compound] | 42 | 242.2 |  |
